Data reported in US11919906B2, “Crystal form of ACP-196 and method of treatment thereof” (Hangzhou SoliPharma Co., Ltd., priority 2016, dated 2024).

Columns and labels:
[1] = Thermogravimetric analysis (TGA), weight loss / residual solvents; assay type: physicochemical; details: before 150° C.
Procedure: Thermogravimetric analysis data were collected on TA instruments Q500 TGA. Method: A sample of 5 to 15 mg was placed in a platinum pan, using High Resolution™, the sample was heated from room temperature to 350° C. at a heating rate of 10° C./min under the protection of dry nitrogen purge at 40 mL/min.

[2] = Isothermal sorption (dynamic vapor sorption), hygroscopicity; assay type: physicochemical; details: between 30 to 80% RH
Procedure: Dynamic vapor sorption data and isothermal sorption data were collected on TA Instruments Q5000 TGA. Method: A sample of 1 to 10 mg was placed in a platinum pan; the weight change of the sample during the change in relative humidity from 0% to 80% to 0% was measured.

weight loss (TGA) [1]	weight change (isothermal sorption plot) [2]	Compound
11.1%	5.5%	CC#CC(=O)N1CCC[C@H]1c1nc(-c2ccc(C(=O)Nc3ccccn3)cc2)c2c(N)nccn12 [amorphous ACP-196]
–	0.8%	CC#CC(=O)N1CCC[C@H]1c1nc(-c2ccc(C(=O)Nc3ccccn3)cc2)c2c(N)nccn12 [ACP-196 Form 1]
